In patent US10537558B2 (Bantam Pharmaceutical, LLC, priority 2015, dated 2020) one finds EC50 data, which are given here for 28 molecules.

The subject of this assay is BJAB cells. Description: BJAB cell proliferation (Cell Titer Glo). The format is cell-based. The following applies: Homo sapiens, read-out: EC50. The method, then:
Cells were seeded in white Corning Costar 96-well assay plates at 2500 cells/well in 50 μL of medium. Serial dilutions of test compounds were made in cell culture medium/FBS+0.2% DMSO, and transferred to assay plates in a volume of 50 μL (DMSO at 0.1% final). Plates were maintained at 37° C. for approximately 72 hours. The effect of compounds on cell proliferation was evaluated using the Cell Titer Glo reagent (Promega), according to the manufacturer's instructions. Briefly, 100 μL of reagent was added per well, and after a 10 minute incubation luminescence values were determined on a plate reader (Tecan F200PRO). The percent of luminescence signal relative to untreated controls was calculated for each compound concentration, and EC50 values were determined from dose response data by non-linear regression analysis using Prism (GraphPad). The mTor inhibitor Torin1 (Liu, et al. (2010) J. Med. Chem. 53, 7146.) was used as a control. The data are summarized in the compound table provided above.

For orientation: EC50 means the concentration at which the effect is half-maximal. As to `COc1cc(F)cc(-c2c(C)nn(-c3nc(-c4ccc(Cl)c(Cl)c4)c(SC(C)C)s3)c2C(=O)O)c1` [Compound 164, 1-(4-(3,4-dichlorophenyl)-5-(isopropylthio)thiazol-2-yl)-4-(3-fluoro-5-methoxyphenyl)-3-methyl-1H-pyrazole-5-carboxylic Acid], the EC50 lay in the range of 1 to 5 µM. Turning to `Cc1nn(-c2nc(-c3ccc(Cl)c(Cl)c3)c(SC(C)C)s2)c(C(=O)O)c1-c1cccnc1` [Compound 44, 1-(4-(3,4-dichlorophenyl)-5-(isopropylthio)thiazol-2-yl)-3-methyl-4-(pyridin-3-yl)-1H-pyrazole-5-carboxylic acid], the 50% effective concentration (EC50) fell in the range of 10 to 25 µM. For `COCc1noc(C)c1-c1c(C)nn(-c2nc(-c3ccc(Cl)c(Cl)c3)c(SC(C)C)s2)c1C(=O)O` [Compound 39, 1-(4-(3,4-dichlorophenyl)-5-(isopropylthio)thiazol-2-yl)-4-(3-(methoxymethyl)-5-methylisoxazol-4-yl)-3-methyl-1H-pyrazole-5-carboxylic acid] the value was 10 to 25 µM. For `CC(C)Sc1sc(-n2nc(C(C)C)c(-c3cccc(F)c3)c2C(=O)O)nc1-c1ccc(Cl)c(Cl)c1` [Compound 228, 1-(4-(3,4-dichlorophenyl)-5-(isopropylthio)thiazol-2-yl)-4-(3-fluorophenyl)-3-isopropyl-1H-pyrazole-5-carboxylic Acid] the value was 1 to 5 µM; for `COc1cncc(-c2c(C)nn(-c3nc(-c4ccc(Cl)c(Cl)c4)c(SC(C)C)s3)c2C(=O)O)c1` [Compound 132, 1-(4-(3,4-dichlorophenyl)-5-(isopropylthio)thiazol-2-yl)-4-(5-methoxypyridin-3-yl)-3-methyl-1H-pyrazole-5-carboxylic acid], 10 to 25 µM; for `Cc1nn(-c2nc(-c3ccc(Cl)c(Cl)c3)c(SC(C)C)s2)c(C(=O)O)c1-c1cnsc1` [Compound 91, 1-(4-(3,4-dichlorophenyl)-5-(isopropylthio)thiazol-2-yl)-4-(isothiazol-4-yl)-3-methyl-1H-pyrazole-5-carboxylic acid], 5 to 10 µM. For `Cc1nn(-c2nc(C3=CCCCC3)c(SC(C)C)s2)c(C(=O)O)c1-c1cccc(F)c1` [Compound 183, 1-(4-(cyclohex-1-en-1-yl)-5-(isopropylthio)thiazol-2-yl)-4-(3-fluorophenyl)-3-methyl-1H-pyrazole-5-carboxylic Acid] the value was 5 to 10 µM; for `Cc1nn(-c2nc(-c3ccc(Cl)c(Cl)c3)c(SC(C)C)s2)c(C(=O)O)c1-c1cccc([N+](=O)[O-])c1` [Compound 108, 1-(4-(3,4-dichlorophenyl)-5-(isopropylthio)thiazol-2-yl)-3-methyl-4-(3-nitrophenyl)-1H-pyrazole-5-carboxylic Acid], 5 to 10 µM; for `CCC(C)Sc1sc(-n2nc(C)c(-c3cc(Cl)cc(Cl)c3)c2C(=O)OC)nc1-c1ccc(Cl)c(Cl)c1` (stereo not shown) [Compound 32a], more than 25 µM. On to `Cc1nn(-c2nc(-c3ccc(Cl)c(Cl)c3)c(SC(C)C)s2)c(C(=O)NCc2ccccn2)c1-c1cc(C(F)(F)F)cc(C(F)(F)F)c1` [Compound 75, 4-(3,5-bis(trifluoromethyl)phenyl)-1-(4-(3,4-dichlorophenyl)-5-(isopropylthio)thiazol-2-yl)-3-methyl-N-(pyridin-2-ylmethyl)-1H-pyrazole-5-carboxamide], for which the EC50 was more than 40 µM. For `Cc1nn(-c2nc(-c3ccc(Cl)c(Cl)c3)c(SC(C)C)s2)c(C(=O)O)c1-c1ccc2c(c1)OCO2` [Compound 89, 4-(benzo[d][1,3]dioxol-5-yl)-1-(4-(3,4-dichlorophenyl)-5-(isopropylthio)thiazol-2-yl)-3-methyl-1H-pyrazole-5-carboxylic Acid] the value was 5 to 10 µM. For `Cc1nn(-c2nc(-c3ccc(Cl)c(Cl)c3)c(SC(C)C)s2)c(C(=O)O)c1Br` [Compound 15, 4-bromo-1-(4-(3,4-dichlorophenyl)-5-(isopropylthio)thiazol-2-yl)-3-methyl-1H-pyrazole-5-carboxylic Acid] the value was 10 to 25 µM. Regarding `CCCSc1sc(-n2nc(C)c(Cc3ccccc3[N+](=O)[O-])c2C(=O)OC)nc1-c1ccc(Cl)c(Cl)c1` [Compound 9, methyl 1-(4-(3,4-dichlorophenyl)-5-(propylthio)thiazol-2-yl)-3-methyl-4-(2-nitrobenzyl)-1H-pyrazole-5-carboxylate], the EC50 is more than 80 µM.

With `Cc1nn(-c2nc(-c3ccc(Cl)c(Cl)c3)c(S(=O)(=O)C(C)C)s2)c(C(=O)O)c1-c1cnn(C)c1` [Compound 67, 2-(4-(3,4-dichlorophenyl)-5-(isopropylsulfonyl)thiazol-2-yl)-2′,5-dimethyl-4,4′-bi(2H-pyrazole)-3-carboxylic acid], the EC50 lay within 25 to 50 µM. For `COc1ccnc(-c2c(C)nn(-c3nc(-c4ccc(Cl)c(Cl)c4)c(SC(C)C)s3)c2C(=O)O)n1` [Compound 90, 1-(4-(3,4-dichlorophenyl)-5-(isopropylthio)thiazol-2-yl)-4-(4-methoxypyrimidin-2-yl)-3-methyl-1H-pyrazole-5-carboxylic acid] the value was more than 25 µM; for `Cc1nn(-c2nc(-c3ccc(Cl)c(Cl)c3)c(SC(C)C)s2)c(C(=O)O)c1-c1cc(C#N)cc(C(F)(F)F)c1` [Compound 84, 4-(3-cyano-5-(trifluoromethyl)phenyl)-1-(4-(3,4-dichlorophenyl)-5-(isopropylthio)thiazol-2-yl)-3-methyl-1H-pyrazole-5-carboxylic Acid], 1 to 5 µM; for `COCCNC(=O)c1c(-c2cccc(C)c2)c(C)nn1-c1nc(-c2ccc(Cl)c(Cl)c2)c(SC(C)C)s1` [Compound 130, 1-(4-(3,4-dichlorophenyl)-5-(isopropylthio)thiazol-2-yl)-N-(2-methoxyethyl)-3-methyl-4-m-tolyl-1H-pyrazole-5-carboxamide], more than 50 µM. For `Cc1nn(-c2nc(-c3ccc(Cl)c(Cl)c3)c(SC(C)C)s2)c(C(=O)O)c1-c1ccnc(F)c1` [Compound 21, 1-(4-(3,4-dichlorophenyl)-5-(isopropylthio)thiazol-2-yl)-4-(2-fluoropyridin-4-yl)-3-methyl-1H-pyrazole-5-carboxylic acid] the value was 5 to 10 µM; for `Cc1nn(-c2nc(-c3ccccc3C#N)c(SC(C)C)s2)c(C(=O)O)c1-c1cccc(F)c1` [Compound 215, 1-(4-(2-cyanophenyl)-5-(isopropylthio)thiazol-2-yl)-4-(3-fluorophenyl)-3-methyl-1H-pyrazole-5-carboxylic acid], 25 to 50 µM.

With `Cc1nn(-c2nc(-c3ccc(Cl)c(Cl)c3)c(SC(C)C)s2)c(C(=O)O)c1-c1cc(O)cc(F)c1` [Compound 152, 1-(4-(3,4-dichlorophenyl)-5-(isopropylthio)thiazol-2-yl)-4-(3-fluoro-5-hydroxyphenyl)-3-methyl-1H-pyrazole-5-carboxylic Acid], the EC50 is 5 to 10 µM. For `CCCS(=O)(=O)NC(=O)c1c(-c2cccc(F)c2)c(C)nn1-c1nc(-c2ccc(C(F)(F)F)cc2)c(SC(C)C)s1` [Compound 251, 4-(3-fluorophenyl)-1-(5-(isopropylthio)-4-(4-(trifluoromethyl)phenyl)thiazol-2-yl)-3-methyl-N-(propylsulfonyl)-1H-pyrazole-5-carboxamide] the value was more than 20 µM; for `Cc1nn(-c2nc(-c3ccc(Cl)c(Cl)c3)c(SC(C)C)s2)c(C(=O)O)c1-c1cnn2cccnc12` [Compound 65, 1-(4-(3,4-dichlorophenyl)-5-(isopropylthio)thiazol-2-yl)-3-methyl-4-(pyrazolo[1,5-a]pyrimidin-3-yl)-1H-pyrazole-5-carboxylic acid], 25 to 50 µM; for `Cc1nn(-c2nc(-c3ccc(Cl)c(Cl)c3)c(SC(C)C)s2)c(C(=O)O)c1-c1cc(F)cc(F)c1` [Compound 24, 1-(4-(3,4-dichlorophenyl)-5-(isopropylthio)thiazol-2-yl)-4-(3,5-difluorophenyl)-3-methyl-1H-pyrazole-5-carboxylic Acid], 1 to 5 µM. As to `Cc1nn(-c2nc(-c3cncc(F)c3)c(SC(C)C)s2)c(C(=O)O)c1-c1cccc(F)c1` [Compound 233, 4-(3-fluorophenyl)-1-(4-(5-fluoropyridin-3-yl)-5-(isopropylthio)thiazol-2-yl)-3-methyl-1H-pyrazole-5-carboxylic Acid], the EC50 is more than 40 µM. For `CONC(=O)c1c(-c2cccc(F)c2)c(C)nn1-c1nc(-c2ccc(C(F)(F)F)cc2)c(SC(C)C)s1` [Compound 256, 4-(3-fluorophenyl)-1-(5-(isopropylthio)-4-(4-(trifluoromethyl)phenyl)thiazol-2-yl)-N-methoxy-3-methyl-1H-pyrazole-5-carboxamide] the value was 10 to 25 µM. The same measure for `Cc1nn(-c2nc(-c3cccc(F)c3)c(SC(C)C)s2)c(C(=O)O)c1-c1cccc2[nH]ccc12` [Compound 169, 1-(4-(3-fluorophenyl)-5-(isopropylthio)thiazol-2-yl)-4-(1H-indol-4-yl)-3-methyl-1H-pyrazole-5-carboxylic acid]: more than 25 µM; for `Cc1cc(-c2c(C)nn(-c3nc(-c4ccc(C(F)(F)F)cc4)c(SC(C)C)s3)c2C(=O)O)cc(C)n1` [Compound 196, 4-(2,6-dimethylpyridin-4-yl)-1-(5-(isopropylthio)-4-(4-(trifluoromethyl)phenyl)thiazol-2-yl)-3-methyl-1H-pyrazole-5-carboxylic Acid]: 1 to 5 µM; for `CCCSc1sc(-n2nc(C)c(Cc3ccccc3NS(C)(=O)=O)c2C(=O)N2CCC(CN)CC2)nc1-c1ccc(Cl)c(Cl)c1` [Compound 14, N-(2-((5-(4-(aminomethyl)piperidine-1-carbonyl)-1-(4-(3,4-dichlorophenyl)-5-(propylthio)thiazol-2-yl)-3-methyl-1H-pyrazol-4-yl)methyl)phenyl)methanesulfonamide]: 10 to 25 µM.
